These results are taken from publication PMC9914855, “UHPLC-MS Phenolic Fingerprinting, Aorta Endothelium Relaxation Effect, Antioxidant, and Enzyme Inhibition Activities of Azara dentata Ruiz & Pav Berries” (Foods, 2023).

For series [1], the target named is acetylcholinesterase (AChE). Set-up: method as in PMID 36552522. The conditions noted are these: cited from earlier work.
Series [2] deals with butyrylcholinesterase (BChE). Set-up: method as in PMID 36552522. As to conditions: cited from earlier work.
The target in series [3] is tyrosinase (Agaricus bisporus, UniProt C7FF04). Also noted: method as in PMID 36552522. The conditions noted are these: cited from earlier work.
Chain of tyrosinase (C7FF04 1-392): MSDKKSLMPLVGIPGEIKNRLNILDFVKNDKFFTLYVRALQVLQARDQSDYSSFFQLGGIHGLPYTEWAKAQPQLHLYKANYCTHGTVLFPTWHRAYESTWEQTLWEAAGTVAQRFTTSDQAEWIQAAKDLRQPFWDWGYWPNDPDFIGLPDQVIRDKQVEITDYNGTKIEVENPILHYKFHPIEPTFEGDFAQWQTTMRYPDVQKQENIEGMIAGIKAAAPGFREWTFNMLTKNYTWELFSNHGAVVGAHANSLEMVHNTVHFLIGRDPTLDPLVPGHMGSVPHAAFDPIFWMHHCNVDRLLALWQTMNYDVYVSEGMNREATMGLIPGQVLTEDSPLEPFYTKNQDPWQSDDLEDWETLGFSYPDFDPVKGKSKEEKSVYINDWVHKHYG
Series [4] relates to human erythrocytes. Briefly: Lipid peroxidation in human erythrocytes. It counts as cell-based. The conditions noted are these: at 100 µg/mL. Here is the method:
The lipid peroxidation in human erythrocytes (LP) assay was performed as described in a previous study with some modifications. Human blood cells (red) were used. After washing, the cells were suspended in phosphate-buffered saline (hemoglobin density of 1 mM). The final cell suspension with different concentrations of the test compounds was incubated and dissolved in DMSO and PBS for 10 min at 37 °C. After incubation, the cells were added to tert-butylhydroperoxide (1 mM) for 15 min at 37 °C. After this, the lipid peroxidation was obtained via the TBARs’ formation. The evaluation was performed in quadruplicate, and the results are shown as the inhibition percentage (IP) of lipid peroxidation in human erythrocytes (IPLP) contrasted to the control of catechin at 100 µg/mL and reported as the average ± SD. Healthy volunteer donors gave their informed consent for inclusion before participating in the study. The protocol assay was conducted in accordance with the Declaration of Helsinki and is included in the approved project by CICIT-CA-UNSJ-Argentina (Project code 80020190100277SJ, N 0591-20-R-UNSJ), referred to as an ethical and environmental safeguard and to preserve the hygiene and safety conditions in the activities to be carried out in laboratories.

The target in series [5] is amylase. The conditions noted are these: cited from earlier work.
For series [6], the target named is lipase. The conditions noted are these: cited from earlier work.
Series [7] deals with T1, AChE (Homo sapiens, UniProt P22303).
T1 construct: purchased Merck, Darmstadt, Germany
T1 sequence (P22303 32-614): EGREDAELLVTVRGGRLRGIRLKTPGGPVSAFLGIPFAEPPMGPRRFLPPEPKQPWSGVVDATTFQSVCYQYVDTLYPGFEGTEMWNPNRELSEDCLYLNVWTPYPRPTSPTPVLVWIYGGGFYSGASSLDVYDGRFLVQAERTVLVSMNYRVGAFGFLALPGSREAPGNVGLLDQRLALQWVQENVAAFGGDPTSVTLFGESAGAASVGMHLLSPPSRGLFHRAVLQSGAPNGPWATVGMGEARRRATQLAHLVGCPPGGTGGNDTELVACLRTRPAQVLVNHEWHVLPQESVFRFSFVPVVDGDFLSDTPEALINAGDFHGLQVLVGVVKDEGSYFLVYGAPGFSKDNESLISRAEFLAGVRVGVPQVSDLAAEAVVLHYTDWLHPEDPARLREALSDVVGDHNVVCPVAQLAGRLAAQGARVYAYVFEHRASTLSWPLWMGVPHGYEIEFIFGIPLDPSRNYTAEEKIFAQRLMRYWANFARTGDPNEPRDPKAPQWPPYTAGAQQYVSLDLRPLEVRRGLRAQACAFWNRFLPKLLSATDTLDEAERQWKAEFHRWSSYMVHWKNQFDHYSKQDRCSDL
As to conditions: cited from earlier work.

For series [8], the target named is T2, BChE (Homo sapiens, UniProt P06276).
T2 construct: purchased Merck, Darmstadt, Germany
T2 sequence (P06276 29-602, species assumed): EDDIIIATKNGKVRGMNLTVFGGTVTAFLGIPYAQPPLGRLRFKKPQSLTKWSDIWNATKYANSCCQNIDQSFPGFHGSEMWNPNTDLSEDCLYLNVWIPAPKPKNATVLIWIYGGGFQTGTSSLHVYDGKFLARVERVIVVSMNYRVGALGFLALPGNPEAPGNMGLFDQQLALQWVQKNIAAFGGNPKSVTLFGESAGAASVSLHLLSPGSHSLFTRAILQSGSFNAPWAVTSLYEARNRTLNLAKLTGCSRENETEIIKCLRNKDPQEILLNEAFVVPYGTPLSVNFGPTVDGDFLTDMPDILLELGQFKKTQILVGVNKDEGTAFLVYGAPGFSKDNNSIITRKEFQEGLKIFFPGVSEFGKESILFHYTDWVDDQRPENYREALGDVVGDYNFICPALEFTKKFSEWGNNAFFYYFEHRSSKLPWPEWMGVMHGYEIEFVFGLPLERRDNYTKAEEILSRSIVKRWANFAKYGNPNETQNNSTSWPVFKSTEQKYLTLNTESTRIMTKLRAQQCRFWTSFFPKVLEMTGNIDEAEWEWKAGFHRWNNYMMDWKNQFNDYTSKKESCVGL
As to conditions: cited from earlier work.

Details of series [9]: method as in PMID 36552522. The conditions noted are these: read-out: GI50 (cytotoxic); cited from earlier work.

For the compound “2-nor-1,2-secolycoserone [2-nor-1,2-secolycoserone coumarin]”, the AChE inhibition in [1] is 1.21 ± 0.03 µg/mL. Moreover, the “BChE IC50” value in [2] is reported as 11.23 ± 0.02 µg/mL. The “tyrosinase IC50” value in series [3] was 103.43 ± 16.86 µg/mL.

Regarding `O.Oc1cc(O)c2c(c1)O[C@H](c1ccc(O)c(O)c1)[C@@H](O)C2` [catechin], the “IPLP (inhibition percentage of lipid peroxidation in human erythrocytes)” value in series [4] was found to be 70%.

In the case of `O=C(/C=C/c1ccc(O)c(O)c1)O[C@@H]1C[C@](O)(C(=O)O)C[C@@H](O)[C@H]1O` [chlorogenic acid, Chlorogenic acid], in [5], the “amylase IC50” value is 498 ± 13 µg/mL. Moreover, in series [6], the “lipase IC50” value is 647 µg/mL. Besides, the values for the half-inhibitory concentration (IC50) in series [7] and in series [8] were 22.6 µM and 17.8 µM, respectively.

Regarding `N.N.[Cl][Pt][Cl]` [cisplatin, reference compound], in [9], the 50% growth inhibitory concentration (GI50) (as a rule, the concentration that inhibits growth by half) was 4.9 ± 0.2 µM.

For `CC1=C(CC/C(C)=C/CO)[C@]2(C)CCCC(C)(C)C2CC1` (stereo partly drawn) [ent-labda-8,13-E-diene-15-ol], the GI50 in series [9] was 4.5 ± 0.1 µM.
